Laboratory results reported in ChEMBL document CHEMBL4706771, “Discovery of Orally Bioavailable Ligand Efficient Quinazolindiones as Potent and Selective Tankyrases Inhibitors” (ACS Med Chem Lett, 2021).
Calls of active or inactive are those of the source. No cut-off for these calls is given here.

Key:
[1] = target: T1, Poly [ADP-ribose] polymerase tankyrase-1 (Homo sapiens, UniProt O95271); assay: Inhibition of human TNKS1 incubated for 1 to 2 hrs by fluorescence polarization assay
T1 sequence (O95271 whole entry): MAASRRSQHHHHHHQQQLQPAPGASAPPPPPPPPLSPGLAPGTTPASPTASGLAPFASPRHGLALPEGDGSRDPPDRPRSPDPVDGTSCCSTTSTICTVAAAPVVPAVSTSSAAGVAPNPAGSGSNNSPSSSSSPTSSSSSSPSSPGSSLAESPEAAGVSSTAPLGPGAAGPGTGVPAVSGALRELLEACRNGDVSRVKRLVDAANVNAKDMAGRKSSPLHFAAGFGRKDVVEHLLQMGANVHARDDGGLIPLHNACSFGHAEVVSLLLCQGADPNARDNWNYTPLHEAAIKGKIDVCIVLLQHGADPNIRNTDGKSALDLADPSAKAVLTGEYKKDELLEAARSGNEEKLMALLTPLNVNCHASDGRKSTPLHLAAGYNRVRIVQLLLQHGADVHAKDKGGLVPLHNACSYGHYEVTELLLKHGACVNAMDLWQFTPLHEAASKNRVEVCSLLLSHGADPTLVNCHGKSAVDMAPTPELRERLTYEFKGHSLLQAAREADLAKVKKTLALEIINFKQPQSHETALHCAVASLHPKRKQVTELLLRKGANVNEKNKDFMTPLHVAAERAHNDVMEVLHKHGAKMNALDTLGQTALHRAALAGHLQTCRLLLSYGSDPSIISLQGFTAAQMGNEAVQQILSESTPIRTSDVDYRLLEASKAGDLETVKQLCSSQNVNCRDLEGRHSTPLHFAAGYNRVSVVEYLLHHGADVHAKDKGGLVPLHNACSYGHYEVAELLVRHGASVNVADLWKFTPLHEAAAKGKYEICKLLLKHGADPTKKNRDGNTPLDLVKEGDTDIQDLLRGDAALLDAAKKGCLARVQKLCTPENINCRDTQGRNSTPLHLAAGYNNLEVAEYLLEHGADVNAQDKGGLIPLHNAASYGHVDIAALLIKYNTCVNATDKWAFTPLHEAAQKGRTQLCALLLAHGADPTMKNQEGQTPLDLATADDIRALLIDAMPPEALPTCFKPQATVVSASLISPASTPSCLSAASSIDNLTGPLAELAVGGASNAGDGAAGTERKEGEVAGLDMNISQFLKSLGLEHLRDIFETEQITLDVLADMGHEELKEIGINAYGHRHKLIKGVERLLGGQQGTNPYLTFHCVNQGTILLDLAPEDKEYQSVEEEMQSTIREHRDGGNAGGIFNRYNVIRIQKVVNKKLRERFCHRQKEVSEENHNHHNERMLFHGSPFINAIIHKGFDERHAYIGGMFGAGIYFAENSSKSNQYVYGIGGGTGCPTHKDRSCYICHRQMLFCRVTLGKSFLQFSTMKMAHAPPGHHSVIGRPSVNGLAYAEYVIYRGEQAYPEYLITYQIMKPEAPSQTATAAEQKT

[2] = Dose normalised AUC in Sprague-Dawley rat at 8.6 mg/kg, po; type: ADME, organism-based; conditions: in vivo
[3] = Volume of distribution in C57 mouse at 3 mg/kg, po or 1 mg/kg, iv; type: ADME, organism-based; conditions: in vivo
[4] = Half life in C57 mouse at 3 mg/kg, po or 1 mg/kg, iv; type: ADME, organism-based; conditions: in vivo
[5] = Volume of distribution in Beagle dog at 2 mg/kg, po or 1 mg/kg, iv; type: ADME, organism-based, Canis lupus familiaris; conditions: in vivo
[6] = Dose normalised AUC in Beagle dog at 2 mg/kg, po; type: ADME, organism-based, Canis lupus familiaris; conditions: in vivo
Cytochrome P450 1A2 = target: T2, Cytochrome P450 1A2 (Homo sapiens, UniProt P05177); assay: Inhibition of CYP1A2 (unknown origin); type: ADME
T2 sequence (P05177 whole entry): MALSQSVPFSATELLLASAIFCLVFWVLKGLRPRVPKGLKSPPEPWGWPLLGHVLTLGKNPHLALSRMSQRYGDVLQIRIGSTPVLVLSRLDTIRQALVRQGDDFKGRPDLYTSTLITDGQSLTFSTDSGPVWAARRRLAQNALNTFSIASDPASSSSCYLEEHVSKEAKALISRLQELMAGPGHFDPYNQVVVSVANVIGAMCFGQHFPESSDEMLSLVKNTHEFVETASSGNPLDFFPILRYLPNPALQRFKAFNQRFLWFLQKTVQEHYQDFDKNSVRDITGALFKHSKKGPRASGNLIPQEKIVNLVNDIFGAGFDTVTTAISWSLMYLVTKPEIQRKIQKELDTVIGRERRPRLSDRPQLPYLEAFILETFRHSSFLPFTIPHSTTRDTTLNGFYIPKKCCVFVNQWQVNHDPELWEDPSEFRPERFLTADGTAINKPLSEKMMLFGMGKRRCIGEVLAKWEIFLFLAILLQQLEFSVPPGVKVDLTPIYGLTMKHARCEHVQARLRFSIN

Cytochrome P450 3A4 = Cytochrome P450 3A4 (Homo sapiens, UniProt P08684); assay: Inhibition of CYP3A4 (unknown origin); type: ADME
Cytochrome P450 3A4, sequence (P08684 whole entry): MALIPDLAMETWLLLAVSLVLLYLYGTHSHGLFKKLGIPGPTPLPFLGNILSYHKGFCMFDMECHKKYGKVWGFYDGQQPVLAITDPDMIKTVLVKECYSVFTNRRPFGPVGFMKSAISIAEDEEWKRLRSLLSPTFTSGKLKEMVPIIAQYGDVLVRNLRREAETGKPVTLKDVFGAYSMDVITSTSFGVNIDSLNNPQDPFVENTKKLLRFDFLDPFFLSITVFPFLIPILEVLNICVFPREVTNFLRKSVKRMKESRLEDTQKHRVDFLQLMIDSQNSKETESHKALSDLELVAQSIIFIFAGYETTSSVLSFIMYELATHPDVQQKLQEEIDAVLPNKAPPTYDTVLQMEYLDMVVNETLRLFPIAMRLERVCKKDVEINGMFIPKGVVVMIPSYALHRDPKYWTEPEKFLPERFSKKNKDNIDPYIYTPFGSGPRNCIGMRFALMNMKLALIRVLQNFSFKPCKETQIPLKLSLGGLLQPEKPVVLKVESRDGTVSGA

[7] = Mutagenicity in Salmonella typhimurium TA1537 by ames test; type: toxicity; conditions: salmonella enterica subsp. enterica serovar typhimurium
[8] = Mutagenicity in Salmonella typhimurium TA100 by ames test; type: toxicity; conditions: salmonella enterica subsp. enterica serovar typhimurium
[9] = Mutagenicity in Escherichia coli WP2uvrA by ames test; type: toxicity
[10] = Mutagenicity in Escherichia coli WP2uvrA in presence of S9 fraction by ames test; type: toxicity, subcellular
NCI-H292 [11] = assay: Antitumor activity against human NCI-H292 cells xenografted in BALB/c mouse assessed as reduction in tumor growth at 3 mg/kg, po administered for 14 days and measured on day 14; type: functional, organism-based; conditions: time 14.0 day
NCI-H292 [12] = assay: Antitumor activity against human NCI-H292 cells xenografted in BALB/c mouse assessed as maximal potency administered orally for 14 days and measured on day 14; type: functional; conditions: time 14 day
[13] = Toxicity in Wistar Han rat assessed as reduction in body weight at 10 mg/kg, po administered for 7 days and measured on day 7; type: organism-based; set-up: scale not given: the % may be the effect or the level left; conditions: in vivo, 168 h, time 7 day
[14] = Toxicity in Wistar Han rat assessed as decrease in activity at >= 100 mg/kg, po administered for 7 days and measured on day 7; type: organism-based; conditions: in vivo, 168 h, time 7 day
[15] = Toxicity in Wistar Han rat assessed as closed eyes at >= 100 mg/kg, po administered for 7 days and measured on day 7; type: organism-based; conditions: in vivo, 168 h, time 7 day
[16] = Toxicity in Wistar Han rat assessed as irregular breathing at >= 100 mg/kg, po administered for 7 days and measured on day 7; type: organism-based; conditions: in vivo, 168 h, time 7 day
[17] = Toxicity in Wistar Han rat assessed as abnormal mucoid fecal consistency at >= 100 mg/kg, po administered for 7 days and measured on day 7; type: organism-based; conditions: in vivo, 168 h, time 7 day
[18] = Toxicity in Wistar Han rat assessed as abnormal soft fecal consistency at >= 100 mg/kg, po administered for 7 days and measured on day 7; type: organism-based; conditions: in vivo, 168 h, time 7 day
[19] = Toxicity in Wistar Han rat assessed as abnormal watery fecal consistency at >= 100 mg/kg, po administered for 7 days and measured on day 7; type: organism-based; conditions: in vivo, 168 h, time 7 day
[20] = Toxicity in Wistar Han rat assessed as tolerability at 10 mg/kg, po administered for 7 days and measured on day 7; type: organism-based; conditions: in vivo, 168 h, time 7 day

- IC50 [1]: 0.004 µM
- AUC/dose [2]: 6651 ng·h/mL
- Vd [3]: 1.34 L/kg
- half-life [4]: 10.9 h
- Vd [5]: 2.12 L/kg
- AUC/dose [6]: 2937 ng·h/mL
- IC50 (Cytochrome P450 1A2): > 100 µM
- IC50 (Cytochrome P450 3A4): > 100 µM
Structure (SMILES): Cc1cccc2c1c(=O)n(C[C@H]1CC[C@H](C(=O)O)CC1)c(=O)n2Cc1cccc(C(F)(F)F)c1C#N
- Activity [7]: Non-Toxic
- Activity [8]: Non-Toxic
- Activity [9]: Non-Toxic
- Activity [10]: Non-Toxic
- Activity (NCI-H292 [11]): Active
- ECmax (NCI-H292 [12]): 10 mg/kg
- Activity [13]: 8%
- Activity [14]: Toxic
- Activity [15]: Toxic
- Activity [16]: Toxic
- Activity [17]: Toxic
- Activity [18]: Toxic
- Activity [19]: Toxic
- Activity [20]: Non-Toxic
